Test results published in patent US6743446B2, “Methods for stabilizing biologically active agents encapsulated in biodegradable controlled-release polymers” (The Ohio State University Research Foundation, priority 1999, dated 2004).
Several values for one entry are separate records, joined by “and”; a condition that tells them apart may be missing. Equal entries are not always repeated. Structures can show the parent of a compound that is named as a salt. Where two headings read alike, the source gives them in different places.

Assays:
[1] = VCR and VBL stability and release in PLGA microspheres by HPLC; type: physicochemical
Procedure: All other reagents and solvents were of analytical grade or purer and purchased from commercial suppliers. Microspheres Preparation Microspheres were prepared by a standard oil-in-oil emulsion-solvent extraction method (17). […] The resulting solution or suspension was added drop-wise to 25 ml of oil (95% cottonseed oil and 5% Span 85 emulsifier) stirred at 500 rpm and room temperature. After 2.5 h of microsphere hardening. 40 ml of petroleum ether (bp: 50 to 100° C.) were added to the emulsion to extract CAN. The emulsion was stirred for additional 15 min, the particles were collected by filtration, and washed 3 times with petroleum ether. The hardened microspheres were flash-frozen with liquid nitrogen and lyophilized with a Labconco Freezone 6 system for 1 day.
The HPLC system consisted of the following: a 510 pump, a 717 Plus autosampler, and a 486 UV detector (waters, Milford, Mass.). […] The mobile phase was composed of aqueous solution of sodium phosphate (10 mM) and methanol 40:60 (v/v) (pH 7.0). For UV detection, the wavelength was set to 298 nm.
Drug release from microspheres was carried out in PBS (127 mM NaCl, 3 mM KCl, 8 mM Na2HPO4, 1 mM KH2PO4, pH 7.4) containing Tween 80 (0.02% w/w/) (PBST) at 37° C. under perfect sink conditions. […] Microspheres were weighed and dissolved in a 50% (v/v) ACN water solution. The precipitated polymer and salts were spun down by brief centrifugation. An aliquot of the supernatant containing drug was removed and analyzed by HPLC.

[2] = aqueous solution; cited from earlier work
[3] = pH measurement of saturated basic salts in water; type: physicochemical; details: excess basic salt suspended in water, 37° C., 7 days
Procedure: The suspension was then incubated at 37° C. for 7 days. The pH of the supernatant was determined with a Corning 430 pH meter (Corning Inc., NY).

[4] = reference (23); cited from earlier work
[5] = pH of saturated basic salt suspension after addition of 1 N HCl; type: physicochemical; details: acid added to the saturated suspension with excess salt, 37° C., 3 days
Source text: The difference of the neutralization effect from the salts is also reflected in the different water contents of their PLGA devices.

[6] = pH of the release medium during incubation of polymer devices; type: physicochemical; details: 3% BSA/PLGA50/50 (0.20 dl/g) microspheres with 3% base, after 35 days
Source text: This effect was confirmed by changes in pH in the release medium and alteration of the PLGA degradation rate.
The pH of the release medium was monitored by a Corning 430 pH meter (Corning Inc., NY) at each sampling interval.

stability of encapsulated drug ([1]; PLGA (50% D,L lactide content) microspheres)	drug remaining intact ([1]; VCR PLGA microspheres with ZnCO3, after 3 weeks) [%]	drug remaining intact ([1]; VCR PLGA microspheres with ZnCO3, after 4 weeks) [%]	drug remained in its native form ([1]; VCR in PLGA microspheres without base, 14 days incubation at 37° C.) [%]	drug degraded to the basic product during microsphere preparation ([1]; VCR PLGA microspheres with co-encapsulated base) [%]	pH of saturated solution [3]	pH after addition of 100 μl of 1 N HCl [5]	pH of the release medium [6]	SMILES	pH of maximum stability [2]	pH of saturated solution [4]
becomes unstable	97	92	23					CC[C@]1(O)C[C@H]2CN(CCc3c([nH]c4ccccc34)[C@@](C(=O)OC)(c3cc4c(cc3OC)N(C=O)[C@H]3[C@@](O)(C(=O)OC)[C@H](OC(C)=O)[C@]5(CC)C=CCN6CC[C@]43[C@@H]65)C2)C1 [VCR, Vincristine sulfate]	~4.5	
				12	9.97 and 9.76	8.99	< 4.5	[Mg+2].[OH-].[OH-] [Mg(OH)2]		9.8
